Values joined by “and” are separate entries in the source; they are usually repeats but may differ in a detail not shown here. Equal values may be shown once.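 Values below derive from 48-hour exposures of cells grown in 96-well plates, with endpoints linearly interpolated between the two concentrations bracketing the appropriate inhibition level. Here, GI50 denotes the concentration required for 50% inhibition of growth. TGI denotes the concentration required for complete inhibition of growth.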
Columns and labels:
Assay in all cases: NCI-60 cell line screen, 48 h
A498 renal = test system: A498 renal
T-47D breast = test system: T-47D breast
SF-295 CNS = test system: SF-295 CNS
SN12C renal = test system: SN12C renal
NCI-H460 lung = test system: NCI-H460 lung
CAKI-1 renal = test system: CAKI-1 renal
MCF7 breast = test system: MCF7 breast
OVCAR-4 ovarian = test system: OVCAR-4 ovarian
EKVX NSCLC = test system: EKVX NSCLC
COLO 205 colon = test system: COLO 205 colon

SMILES | TGI (A498 renal) | TGI (T-47D breast) | TGI (SF-295 CNS) | TGI (SN12C renal) | TGI (NCI-H460 lung) | TGI (CAKI-1 renal) | TGI (MCF7 breast) | TGI (OVCAR-4 ovarian) | TGI (EKVX NSCLC) | TGI (COLO 205 colon) | GI50 (A498 renal) | GI50 (EKVX NSCLC) | GI50 (SF-295 CNS) | GI50 (SN12C renal)
COc1ccc(Cn2nc(OCc3ccccn3)c3cc([N+](=O)[O-])ccc32)cc1 | > 100 µM | > 100 µM | > 100 µM | > 100 µM | > 100 µM | > 100 µM | > 100 µM |  |  |  |  |  |  | 
C/C(=N\N(C)C)C(CN(C)C)C(c1ccccc1)c1c(O)c2ccccc2oc1=O (stereo unspecified) |  |  | > 100 µM | > 100 µM | > 100 µM |  |  | > 100 µM | > 100 µM | > 100 µM |  |  |  | 
Cc1ccc(S(=O)(=O)Nn2c(-c3ccccc3)c(C#N)c(-c3ccc([N+](=O)[O-])cc3)c(C#N)c2=O)cc1 | > 100 µM |  | > 100 µM | > 100 µM | > 100 µM | > 100 µM | > 100 µM | > 100 µM | > 100 µM | > 100 µM |  |  |  | 
COc1cc2c3c(n(CCCNCCO)c(=O)c2cc1OC)-c1cc2c(cc1C3=O)OCO2 | 1.87 µM and 1.49 µM | 1.52 µM | 1.29 µM and 4.27 µM | 1.19 µM | 0.23 µM and 0.0797 µM |  | 0.155 µM and 0.113 µM |  | 1.22 µM | 2 µM and 5.42 µM | 0.033 µM | 0.257 µM and 0.557 µM | < 0.0188 µM | < 0.0119 µM
O=c1c(Cc2ccc(Cl)cc2)nnc2sc(-c3ccc([N+](=O)[O-])cc3)nn12 | 63.6 µM |  | > 100 µM | > 100 µM | 44.1 µM | > 100 µM | 53 µM | > 100 µM | 64.4 µM |  |  |  |  | 
COC(=O)Cc1c(C2=Nc3ccccc3C2(O)CC(=O)OC)[nH]c2ccccc12 (stereo unspecified) | > 100 µM | > 100 µM | > 100 µM | > 100 µM | > 100 µM | 71 µM |  |  | > 100 µM | 52.3 µM |  |  |  | 
Cc1ccc2ccccc2c1CC1S(=O)(=O)OCCOS1(=O)=O |  |  | 27.4 µM | 23.7 µM | 27.4 µM | 24.4 µM | 23.1 µM | 23.6 µM | 29.9 µM | 6.1 µM |  |  |  | 
CN(C)c1ccc(-c2nc(-c3cc4c(ccc5ccccc54)oc3=O)cs2)cc1 |  | > 100 µM | > 100 µM | > 100 µM | > 100 µM | > 100 µM | > 100 µM | > 100 µM | > 100 µM | > 100 µM |  |  |  | 
CC(=O)N(C(C)=O)n1c(Cc2ccc(Cl)cc2)nn(C(C)=O)c1=O | > 100 µM | > 100 µM | > 100 µM | > 100 µM | > 100 µM |  | > 100 µM | > 100 µM | > 100 µM | > 100 µM |  |  |  | 
COc1cc(C2SCC(=O)N2NC(=O)c2ccc(NC(C)=O)cc2)cc(OC)c1OC (stereo unspecified) | > 100 µM | > 100 µM | > 100 µM | > 100 µM | > 100 µM |  | > 100 µM | > 100 µM | > 100 µM | > 100 µM |  |  |  | 
CCCCN(CCCC)C(=NCc1ccccc1)NC#N | 42.6 µM |  | 35.6 µM | 44.4 µM | 26.9 µM | 43.9 µM |  | > 100 µM | 73.5 µM | 33 µM |  |  |  | 
[N-]=[N+]=NC1(c2ccccc2)C(=O)Nc2ccccc2C1=O (stereo unspecified) | 43.4 µM | > 100 µM | > 100 µM | > 100 µM | > 100 µM | > 100 µM | > 100 µM | > 100 µM |  | > 100 µM |  |  |  | 
CC1=NN(C(=O)CC(=O)Nc2cccc(Cl)c2)C(=O)C1N=Nc1ccc(S(N)(=O)=O)cc1 (stereo unspecified) | > 100 µM |  | > 100 µM | > 100 µM | > 100 µM | > 100 µM |  | > 100 µM | > 100 µM | > 100 µM |  |  |  | 
COc1ccccc1C(=O)c1c(N2CCCCC2)c(=O)c1=O | > 100 µM |  | > 100 µM | > 100 µM | > 100 µM | > 100 µM | > 100 µM | > 100 µM | > 100 µM | > 100 µM |  |  |  | 
CCCCCCCCCCCCCCCCOCC(CC(F)(F)P(=O)(O)O)OC(C)=O (stereo unspecified) | > 50 µM |  | > 50 µM | > 50 µM | > 50 µM | > 50 µM | > 50 µM |  | > 50 µM | > 50 µM |  |  |  | 
O=C(c1ccccc1F)c1c(NCc2ccccc2)c(=O)c1=O | > 100 µM |  | > 100 µM | > 100 µM | > 100 µM | > 100 µM | > 100 µM | > 100 µM | > 100 µM | > 100 µM |  |  |  | 
Cc1cccc(NC(=O)CC(=O)N2N=C(N3c4ccccc4Sc4ccccc43)CC2c2ccccc2)c1 (stereo unspecified) | > 100 µM | > 100 µM | > 100 µM | > 100 µM | > 100 µM |  | > 100 µM | > 100 µM | > 100 µM | > 100 µM |  |  |  | 
O=C(c1cccs1)N(C(=S)N1CCN(c2ccccc2)CC1)c1ccccc1 |  |  | > 100 µM | > 100 µM | > 100 µM | > 100 µM |  | > 100 µM |  | > 100 µM |  |  |  | 
